For assay [1], the system named is PPRE luciferase. Nature of the assay: PPRE luciferase activation, transient transfection reporter assay (test (a)). It is filed as cell-based, human. The note with it: for Test (a) activation of PPRE luciferase by at least 100%: positive in 184B5, 184B5/HER, HCA7, HCT116, SKBR3 and BT474 cells, 24 h treatment. On the technique in general: A reporter such as luciferase makes a cellular process visible.

In assay [2] the test system is HPV16 oncoproteins E6 and E7. Nature of the assay: Western and Northern blotting for HPV16 oncoproteins E6 and E7 (test (d)). The settings on record: for Test (d) at least 50% downregulation of expression of HPV16 oncoproteins E6 and E7: positive in CaSki and SiHa cells. The format is cell-based, human papillomavirus.

Turning to `COc1ccc(OC(=O)Cc2c(C)n(C(=O)c3ccc(Cl)cc3)c3ccc(OC)cc23)cc1` [Indomethacin Analog 3, 1-(p-chlorobenzoyl)-5-methoxy-2-methyl-1H-indole-3-acetic acid, 4-methoxyphenyl ester], the “Test (a) activation of PPRE luciferase by at least 100%” value (from here on “Test (a) activation … at least 100%”) in assay [1] is given as “+ (A plus sign in the table indicates a positive result, that is meeting the test for each cell line as indicated above as providing a positive result)”.

For `CS(=O)(=O)c1ccc(-n2nc(C(F)(F)F)cc2-c2ccc(F)cc2)cc1` [SC-58125, 4-[5-(4-fluorophenyl)-3-(trifluoromethyl)-1H-pyrazol-1-yl]benzenemethylsulfone], in assay [1], the “Test (a) activation … at least 100%” value is “+ (A plus sign in the table indicates a positive result, that is meeting the test for each cell line as indicated above as providing a positive result)”. In assay [2], the “Test (d) at least 50% downregulation of expression of HPV16 oncoproteins E6 and E7” value (from here on “Test (d) at least 50% downregulation”) was “+ (A plus sign in the table indicates a positive result, that is meeting the test for each cell line as indicated above as providing a positive result)”.

As for `NS(=O)(=O)c1ccc(-n2nc(C(F)(F)F)cc2-c2ccc(Cl)cc2)cc1` [SC-236, 4-[5-(4-chlorophenyl)-3-(trifluoromethyl)-1H-pyrazol-1-yl]benzenesulfonamide], in assay [1] (184B5 cells, 24 hours, highest concentration), the “activation of the promoter (PPRE-luciferase)” value is on record as 150%. In assay [1], the “Test (a) activation … at least 100%” value was “+ (A plus sign in the table indicates a positive result, that is meeting the test for each cell line as indicated above as providing a positive result)”. Further, the “decrease in amounts of E6 mRNA” value in assay [2] (CaSki cells, 24 hours, 0-5.0 μM, Northern blotting) is given as “greater than 50%”. In addition, the “inhibition of HPV16 E7 protein” value in assay [2] (CaSki cells, 24 hours, 0-5.0 μM, high concentration, Western blot) is recorded as “greater than 50%”. Besides, the “Test (d) at least 50% downregulation” value in assay [2] is “+ (A plus sign in the table indicates a positive result, that is meeting the test for each cell line as indicated above as providing a positive result)”.

`Cc1ccc(-c2cc(C(F)(F)F)nn2-c2ccc(S(N)(=O)=O)cc2)cc1` [Celecoxib]: the “Test (a) activation … at least 100%” value in assay [1] is recorded as “+ (A plus sign in the table indicates a positive result, that is meeting the test for each cell line as indicated above as providing a positive result)”. Besides, the “Test (d) at least 50% downregulation” value in assay [2] is “+ (A plus sign in the table indicates a positive result, that is meeting the test for each cell line as indicated above as providing a positive result)”.

For `CCCCCCCOC(=O)Cc1c(C)n(C(=O)c2ccc(Cl)cc2)c2ccc(OC)cc12` [Indomethacin Analog 1, indomethacin heptyl ester], in assay [1], the “Test (a) activation … at least 100%” value is on record as “+ (A plus sign in the table indicates a positive result, that is meeting the test for each cell line as indicated above as providing a positive result)”. Moreover, the “Test (d) at least 50% downregulation” value in assay [2] is on record as “+ (A plus sign in the table indicates a positive result, that is meeting the test for each cell line as indicated above as providing a positive result)”.
